This is an account of results in EP0392666A2, “Anti-HIV compositions” (JOHNSON MATTHEY PUBLIC LIMITED COMPANY, priority 1989, dated 1990).

One data set has as its system HIV-1 (HTLV-IIIB). Briefly: microbe, parasite or virus in culture. The note with it: for EC50: Human immunodeficiency virus 1, MT4, 120 h, read-out: ED₅₀; for SI: Selectivity Index, ratio of CD₅₀ to ED₅₀, HIV-1, 7200 min. The format is cell-based. On the procedure: (§1) The compounds of the invention were tested in a screen by the MTT method (J. Virol. Methods 120: 309-321 [1988]). MT-4 cells (2.5 x 10⁴ /well) were infected with HIV-1 (HTLV-IIIB) or HIV-2 (LAV-2 ROD) at a concentration of 100 CCID₅₀ and incubated in the presence of various concentrations of the test compounds, which were added immediately after infection with the virus. After 5 days culture at 37°C in a CO₂ incubator, the number of viable cells was assessed by the MTT (tetrazolium) method. […] The potential therapeutic usefulness was assessed by calculating a Selectivity Index (SI) corresponding to the ratio of CD₅₀ to ED₅₀. A control test was performed using the known anti-HIV treatment AZT.

A short description of data set [1]: Cytotoxicity by MTT method in MT-4 cells. The class given is cell-based, human. The note with it: human, mt-4 cells, read-out: CD₅₀. On the procedure: as §1
For orientation: Formazan colour is commonly taken as a measure of viable cells.

Another data set has as its system HIV-2 (LAV-2 ROD). In words: MTT method anti-HIV screen in MT-4 cells infected with HIV-2. The class given is cell-based. The note with it: for EC50: Human immunodeficiency virus 2, MT4, 120 h, read-out: ED₅₀; for EC50 / ED₅₀: antiviral activity, MT-4 cells infected with HIV-2 (LAV-2 ROD) at 100 CCID₅₀, 5 days; for SI: Selectivity Index, ratio of CD₅₀ to ED₅₀, HIV-2, 7200 min. As to the method: as §1

Another data set deals with MT-4 cells. Briefly: Cytotoxicity by MTT method in MT-4 cells. The class given is cell-based, human. On the procedure: as §1
The mark [2] stands for this setting: antiviral activity, MT-4 cells infected with HIV-1 (HTLV-IIIB) at 100 CCID₅₀, 5 days.

In brackets after ≈: the same amount, converted by molar mass. Like-named read-outs stand apart in the source and are kept apart here.

Take “c-[Rh cyclam (NO₂)₂]Cl [reference compound]”: the ED₅₀ with HIV-1 (HTLV-IIIB) (setting [2]) is over 250 µg/mL.
In the case of `C1CNCCNCCNCCNCCN1` [F, 1,4,7,10,13-pentazacyclopentadecane], the CC50 at 120 h stood at 3.36 µg/mL (≈ 15.6 µM) in data set [1] (HIV-1, 5 days culture at 37°C) and 6.03 µg/mL (≈ 28 µM) in data set [1] (HIV-2, 5 days culture at 37°C). Moreover, the EC50 with HIV-1 (HTLV-IIIB) (setting [2]) and in the data set on HIV-2 (LAV-2 ROD) was over 8 µg/mL each time. Moreover, the SI with HIV-1 (HTLV-IIIB) and in the data set on HIV-2 (LAV-2 ROD) was under 1 in each case.
Take `C1CNCCCNCCCNCCCNC1` [D, 1,5,9,13-tetrazacyclohexadecane]: the CC50 at 120 h in data set [1] (HIV-1, 5 days culture at 37°C) was 11.2 µg/mL (≈ 49 µM); in data set [1] (HIV-2, 5 days culture at 37°C), 20.5 µg/mL (≈ 89.8 µM). For the same compound, the EC50 was 0.3 µg/mL (≈ 1.31 µM) in the data set on HIV-1 (HTLV-IIIB) (setting [2]) and over 40 µg/mL in the data set with HIV-2 (LAV-2 ROD). The results for the SI in the data set with HIV-1 (HTLV-IIIB) and with HIV-2 (LAV-2 ROD) were 37 and under 1, respectively.
[Cu cyclam]Cl₂ [X, reference compound] registered an ED₅₀ in the data set with HIV-1 (HTLV-IIIB) (setting [2]) of over 250 µg/mL.
With `C1CCNCCCNCCNCCCNC1` [C, 1,4,8,13-tetrazacyclohexadecane. 4HCl], the CC50 at 120 h in data set [1] (HIV-1, 5 days culture at 37°C) came out at 334 µg/mL; in data set [1] (HIV-2, 5 days culture at 37°C) it was 341 µg/mL. Moreover, the EC50 in the data set with HIV-1 (HTLV-IIIB) (setting [2]) is 18.8 µg/mL; in the data set on HIV-2 (LAV-2 ROD) it was over 500 µg/mL. Further, the values for the SI with HIV-1 (HTLV-IIIB) and with HIV-2 (LAV-2 ROD) were 18 and under 1, respectively.
`Cc1cn([C@H]2C[C@H](N=[N+]=[N-])[C@@H](CO)O2)c(=O)[nH]c1=O` [AZT, reference compound]: the CC50 at 120 h in data set [1] (HIV-1, 5 days culture at 37°C) was over 1 µg/mL. In the data set with HIV-1 (HTLV-IIIB), the EC50 was under 0.008 µg/mL and the SI is recorded as over 125.
In the case of `CC1CC(C)(C)NCCNC(C)CC(C)(C)NCCN1` (stereo not shown) [I, 5,5,7,12,12,14-hexamethyl-cyclam], the CC50 at 120 h was 432 µg/mL (≈ 1520 µM) in data set [1] (HIV-1, 5 days culture at 37°C) and 419 µg/mL (≈ 1470 µM) in data set [1] (HIV-2, 5 days culture at 37°C). The EC50 in the data set with HIV-1 (HTLV-IIIB) (setting [2]) is 197 µg/mL (≈ 692 µM); in the data set with HIV-2 (LAV-2 ROD) it was over 1000 µg/mL. Further, the SI in the data set with HIV-1 (HTLV-IIIB) is 2; with HIV-2 (LAV-2 ROD) it was under 1.
As for `C1CNCCCNCCNCCCNC1` [B, 1,4,8,12-tetrazacyclopentadecane], the CC50 at 120 h in data set [1] (HIV-1, 5 days culture at 37°C) stood at 460 µg/mL (≈ 2140 µM); in data set [1] (HIV-2, 5 days culture at 37°C), 487 µg/mL (≈ 2270 µM). Moreover, the figures for the EC50 in the data set with HIV-1 (HTLV-IIIB) (setting [2]) and with HIV-2 (LAV-2 ROD) were 30.3 µg/mL (≈ 141 µM) and 40.4 µg/mL (≈ 188 µM), respectively. The values for the SI with HIV-1 (HTLV-IIIB) and in the data set on HIV-2 (LAV-2 ROD) were 15 and 12, respectively.
For “Zn complex of 1,4,8,12-tetrazacyclopentadecane (Cl⁻) [G]”, the CD₅₀ in the data set with MT-4 cells (HIV-1, 5 days culture at 37°C) stood at 194.2 µg/mL; in the data set on MT-4 cells (HIV-2, 5 days culture at 37°C), 218.3 µg/mL. Further, the ED₅₀ with HIV-1 (HTLV-IIIB) (setting [2]) is 6.96 µg/mL; with HIV-2 (LAV-2 ROD), over 1000.0 µg/mL.
“Zn complex of 1,5,9,13-tetrazacyclohexaadecane (Cl⁻) [Compound H]”: the CD₅₀ in the data set with MT-4 cells (HIV-1, 5 days culture at 37°C) was 46.9 µg/mL; in the data set with MT-4 cells (HIV-2, 5 days culture at 37°C), 46.9 µg/mL. In addition, the ED₅₀ is 10.6 µg/mL with HIV-1 (HTLV-IIIB) (setting [2]) and over 100.0 µg/mL with HIV-2 (LAV-2 ROD).
For the compound `C1CCNCCCNCCCNCCCNC1` [E, 1,5,9,14-tetrazacycloheptadecane], the CC50 at 120 h in data set [1] (HIV-1, 5 days culture at 37°C) was 3.35 µg/mL (≈ 13.8 µM); in data set [1] (HIV-2, 5 days culture at 37°C), 5.06 µg/mL (≈ 20.9 µM). Besides, the EC50 was 1.3 µg/mL (≈ 5.36 µM) in the data set with HIV-1 (HTLV-IIIB) (setting [2]) and over 8 µg/mL in the data set with HIV-2 (LAV-2 ROD). The values for the SI in the data set on HIV-1 (HTLV-IIIB) and in the data set on HIV-2 (LAV-2 ROD) were 3 and under 1, respectively.
